The results in this text go back to patent US20090098222A1, “Accelerating Agent of Calcium Absorption” (priority 2006, published 2009).

Assay [1] has as its system rats fed a calcium-deficient diet. Description: Effects on urinary excretion of calcium (metabolic cage). In kind it is in vivo, rat. The note with it: total for three days, 40 mL of water containing the substance, FIG. 2. On the procedure:
(§1) […]. Male Wistar rats weighing 200-250 g, and about 120 g especially in the experiment of studying calcium born absorption (Test Example 3), were used as an experimental animal.
Usually, calcium concentrations in blood are constantly maintained by biogenic homeostasis and it is difficult to utilize it as an index of calcium absorption. Accordingly, the urinary excretion of calcium was assayed in place of it.
Rats were kept in a metabolic cage and 40 mL of water containing calcium (Ca), Gum Arabic (GA), or Ca and GA (Ca+GA) was given for three days. […]. After recovering urine, urinary concentration of calcium and urine volume were measured.

Assay [2] has the same test system. Kind of assay: Effects on bone absorption of calcium (30-day oral administration). To be noted: 30 days, 1 mg (Ca)/day, GA coadministered with Ca, compared with the Ca-treated group, FIG. 6. It is filed as in vivo, rat.
From the text: as §1
Next, it was studied whether the accelerating effect of GA on calcium absorption reaches bone absorption, and prevents the decease of calcium content in the bone, using rats fed a calcium-deficient diet.
Calcium (Ca-treated group), or calcium and GA ([Ca+GA]-treated group) were orally administered to rats for 30 days with an amount of 1 mg (ca)/day, and changes of hardness and mineral (Ca, Mg, P, Zn) content of the femur, or ALP in blood were observed. Rats were fed a calcium-deficient diet in order to eliminate an effect of calcium contained in the normal diet.

On to `C[C@H](O)C(=O)[O-].C[C@H](O)C(=O)[O-].[Ca+2]` [Ca, calcium L-lactate], for which, in assay [1], the “urinary excretion of calcium” value is “not increased”. For the same compound, in assay [2], the ALP in blood entry is “elevation of ALP in blood was observed”.
